Measured values taken from ChEMBL document CHEMBL5257100, “Discovery and development of benzene sulfonamide derivatives as anti-hepatic fibrosis agents” (Bioorg Med Chem Lett, 2023).
Activity calls are given as the source filed them. The calls are words filed in the database; no cut-off is given here.

Columns and labels:
[1] = Anti-hepatic fibrosis activity in human LX2 cells assessed as inhibition of COL1A1 promoter activity at 25 micromol/L by luciferase reporter assay relative to control; type: functional; conditions: LX-2, dose 25 µmol/L
LX-2 [2] = assay: Anti-hepatic fibrosis activity in human LX2 cells assessed as inhibition of TGF-beta1 induced COL1A1 mRNA expression at 3 micromol/L incubated for 24 hrs by qPCR analysis; type: functional, cell-based; conditions: dose 3.0 µmol/L
LX-2 [3] = assay: Anti-hepatic fibrosis activity in human LX2 cells assessed as inhibition of TGF-beta1 induced MMP-2 mRNA expression at 3 micromol/L incubated for 24 hrs by qPCR analysis; type: functional, cell-based; conditions: dose 3.0 µmol/L
LX-2 [4] = assay: Anti-hepatic fibrosis activity in human LX2 cells assessed as inhibition of TGF-beta1 induced intrinsic TGF-beta1 mRNA expression at 3 micromol/L incubated for 24 hrs by qPCR analysis; type: functional, cell-based; conditions: dose 3.0 µmol/L
LX-2 [5] = assay: Anti-hepatic fibrosis activity in human LX2 cells assessed as inhibition of TGFbeta1-induced COL1A1 protein expression at 3 uM incubated for 24 hrs by western blot analysis; type: functional, cell-based
LX-2 [6] = assay: Anti-hepatic fibrosis activity in human LX2 cells assessed as inhibition of TGFbeta1-induced FN protein expression at 3 uM incubated for 24 hrs by western blot analysis; type: functional, cell-based
LX-2 [7] = assay: Anti-hepatic fibrosis activity in human LX2 cells assessed as inhibition of TGFbeta1-induced alpha-SMA protein expression at 3 uM incubated for 24 hrs by western blot analysis; type: functional, cell-based
LX-2 [8] = assay: Anti-hepatic fibrosis activity in human LX2 cells assessed as inhibition of TGFbeta1-induced TIMP-1 protein expression at 3 uM incubated for 24 hrs by western blot analysis; type: functional, cell-based
LX-2 [9] = assay: Anti-hepatic fibrosis activity in human LX2 cells assessed as inhibition of TGFbeta1-induced COL1A1 protein expression at 1 uM incubated for 24 hrs by western blot analysis; type: functional, cell-based
LX-2 [10] = assay: Anti-hepatic fibrosis activity in human LX2 cells assessed as inhibition of TGFbeta1-induced FN protein expression at 1 uM incubated for 24 hrs by western blot analysis; type: functional, cell-based
LX-2 [11] = assay: Anti-hepatic fibrosis activity in human LX2 cells assessed as inhibition of TGFbeta1-induced alpha-SMA protein expression at 1 uM incubated for 24 hrs by western blot analysis; type: functional, cell-based
LX-2 [12] = assay: Anti-hepatic fibrosis activity in human LX2 cells assessed as inhibition of TGFbeta1-induced TIMP-1 protein expression at 1 uM incubated for 24 hrs by western blot analysis; type: functional, cell-based
[13] = Cytotoxicity against human LX2 cells assessed as mortality rate at 1 to 30 uM incubated for 24 hrs by Sulfonyl Rhodamine B assay; type: toxicity, cell-based; conditions: lx-2, 24 h, dose 1-30 µM
AML12 = assay: Cytotoxicity against mouse AML12 cells assessed as mortality rate at 1 to 30 uM incubated for 24 hrs by Sulfonyl Rhodamine B assay; type: toxicity, cell-based; conditions: aml12, 24 h, dose 1-30 µM
[14] = Inhibition of JAK1/STAT1/STAT3 signaling pathway in human LX2 cells assessed as decrease in TGF-beta induced JAK1 phosphorylation level at 1 uM incubated for 24 hrs by Western blot analysis; type: cell-based
[15] = Inhibition of JAK1/STAT1/STAT3 signaling pathway in human LX2 cells assessed as decrease in TGF-beta induced STAT1 phosphorylation level at 1 uM incubated for 24 hrs by Western blot analysis; type: cell-based
[16] = Inhibition of JAK1/STAT1/STAT3 signaling pathway in human LX2 cells assessed as decrease in TGF-beta induced STAT3 phosphorylation level at 1 uM incubated for 24 hrs by Western blot analysis; type: cell-based

Row | SMILES | inhibition at 25 µM [1] [%] | inhibition (LX-2 [2]) | inhibition (LX-2 [3]) | inhibition (LX-2 [4]) | inhibition (LX-2 [5]) | inhibition (LX-2 [6]) | inhibition (LX-2 [7]) | inhibition (LX-2 [8]) | inhibition (LX-2 [9]) | inhibition (LX-2 [10]) | inhibition (LX-2 [11]) | inhibition (LX-2 [12]) | Activity [13] | Activity (AML12) | inhibition [14] | inhibition [15] | inhibition [16]
1 | O=C(Nc1ccccc1NS(=O)(=O)c1cccc([N+](=O)[O-])c1)c1cc(Cl)c(Cl)c(Cl)c1 | 61.7 | Active | Active | Active | Active | Active | Active | Active | Active | Active | Active | Active | Toxic | Non-Toxic | Active | Active | Active
2 | O=C(Nc1ccccc1NS(=O)(=O)c1ccc([N+](=O)[O-])cc1)c1cc(Cl)c(Cl)c(Cl)c1 | 54.8 | Active | Active | Active | Active | Active | Active | Active | Active | Active | Active | Active | Non-Toxic | Non-Toxic | Active | Active | Active
